Reference: publication PMC12648443, “Modifications of NU-9, a potent protein aggregation inhibitor. Properties and activity in a cellular model of amyotrophic lateral sclerosis” (Bioorganic chemistry, 2025)

Experiments:
[1] = system: MG132-induced mutant SOD1 intracellular aggregation in PC12-SOD1^G85R YFP cells; assay: Protection against MG132-induced mut-SOD1 intracellular aggregation (fluorescence microscopy); type: cell-based
Method: The PC12 Tet-Off-SOD1^G85R YFP cells were cultured in DMEM media supplemented with 10 % horse serum, 5 % Tet-approved FBS, 1 % Penstrep, 1× L-glutamine, 200 μg/mL hygromycin, 100 μg/mL G418, with 1 μg/mL Doxycycline and were incubated at 37 °C in humidified air with […] until 90–95 % confluency. To induce the expression of SOD1^G85R YFP, the Doxycycline was removed at least 4 days before the experiment. To remove the Doxycycline, the media was removed, and the cells were washed 3 times with 1xPBS. The cells were then cultured in standard culture media without Doxycycline. To set up the assay, the cells were then seeded into 96-well cell culture plates (Greiner Bio-One Catalog #655090) at a concentration of 50,000 cells/well with a final volume of 100 μL/well and incubated in the CO2 incubator at 37 °C for 24 h. The media were removed from the cells and replaced with 100 μL of media containing 0.1 % DMSO or compounds, and incubated in the CO2 incubator at 37 °C for 6 h. The media were then replaced with fresh 100 μL of media containing the diluted compounds with 0.7 μM (−)-MG-132, and the plates were incubated for 72 h under culture conditions. After 72 h, the cells were stained with Hoescht 33,342 (55 μg/mL, 10 μL/well) and imaged (lex = 358, 513 nm) using a Molecular Devices ImageXpress Micro Confocal High-Content Imaging System equipped with a 40× objective. […] Image binning was set to 2. DAPI fluorescence was captured using an exposure time of 300 ms, and FITC fluorescence was captured using an exposure time of 400 ms. A 13-plane z-series was acquired for each field of view with a step size of 3 μm. For each condition, 2 sets of 9 images were generated in a 3 × 3 grid to separately image the SOD1^G85R YFP proteins and the nuclei stained with Hoescht 33,342. Image analysis was performed with MetaXpress software (Molecular Devices) using the Transfluor module. Parameters for puncta detection (aggregates) were set with a minimum pit width of 2 μm and a maximum pit width of 5 μm. Signal intensity thresholds were defined as 700 grayscale units above the local background. The analysis provided the average area of each cell that is covered by puncta (pit/cell), which are indicated by bright green spots on the SOD1^G85RYFP image set.
The assay was performed in triplicate for each condition tested, and wells containing the media with vehicle (0.1 % DMSO) or (−)-MG-132 alone were used as controls representing the minimum and maximum aggregate formation. […] The data for EC50 determination was treated with Prism and fitted using a semi-logarithmic curve for determination of the EC50 values of NU9 and compounds 4, 6, 20 and 21.

[2] = In vitro cytotoxicity, CellTiter-Glo, HepG2; type: cell-based; conditions: human, HepG2 cells
Method: (§1) The HepG2 and HEK293 cells were cultured in DMEM media supplemented with 10 % FBS (heat-inactivated), 1 % Pen-strep, and L-glutamine and incubated at 37 °C in humidified air with 5 % CO2 until 85–90 % confluency. The PC12 Tet-Off-SOD1^G85R YFP cells were maintained as described in 4.2. On the day before the experiments, the cells were transferred to white bottom 96 well plates (Greiner cat. 655,083) at a concentration of 50,000 cells/100 μL of media in each well and incubated overnight at 37 °C. Stock solutions of the compounds (30 mM) in DMSO were prepared and then diluted in media to obtain the six final working solutions starting at 30 μM, and serial dilutions were obtained with the lowest concentration at 0.25 μM. The media were removed and fresh media containing the compounds or the vehicle DMSO (0.1 % v/v) were transferred to the plates containing HepG2 and HEK293 cells and the plates were incubated for 24 or 48 h at 37 °C. The PC12 Tet-Off-SOD1^G85R YFP cells compound treatment was performed as described in section 4.2 and using a 9-point 2-fold serial dilution of the compounds starting at 15 μM and the lowest concentration at 0.05 μM. After incubation, the plates were cooled to room temperature and 25 μL of CellTiter-Glo® solution was added to each well. The plates were loaded into a BioTek Synergy H1 MD plate reader and shaken for 2 min, stabilized for 10 min without shaking, and then the luminescence values were read for each well (luminescence integration step 1 ms). Wells containing media with the vehicle DMSO with or without cells were used as controls to represent, respectively, the maximum viability and the lowest viability (background signal) for the cytotoxicity studies with HepG2 and HEK293 cell lines. The viability values for the assay performed with the PC12 Tet-Off-SOD1^G85R YFP cells were normalised for the vehicle (0.1 % DMSO) and (−)-MG-132 alone treatments, which represented respectively the […] viability for the assay.
(§2) The results are presented as an average of three independent experiments, each performed in triplicate, for the cytotoxicity experiments performed with HepG2 and HEK293 cells. The results for the protective screening with the PC12 Tet-Off-SOD1^G85R YFP cells are presented as an average of four replicates.

HepG2 cells = assay: In vitro cytotoxicity, CellTiter-Glo, HepG2; type: cell-based; conditions: cytotoxicity EC50 (HepG2, HEK293) versus PC12-SOD1^G85R EC50
Method: as §1, §2

[3] = In vitro cytotoxicity, CellTiter-Glo, HEK293; type: cell-based; conditions: human, HEK293 cells
Method: as §1, §2

[4] = system: PC12-SOD1^G85R YFP cells co-treated with MG132; assay: Viability screening against MG132-induced toxicity, CellTiter-Glo; type: cell-based; conditions: PC12-SOD1^G85R YFP cells co-treated with MG132 and the compounds; read-out: PC12-SOD1^G85R EC50, in vitro viability screening (protection against MG132-induced toxicity)
Method: as §1, with “assay. […]” for “assay.”

[5] = pig, PAMPA, 18 h, 250 μM, pH 7.5
Method: (§3) A solution of 1 × PBS (pH 7.5) was initially prepared by the dilution of a commercially available 10 × PBS solution. […] A solution of porcine brain lipid (PBL) (20 mg/mL in dodecane) was prepared, and 4 μL of this solution was used to coat the filters on the bottom of the PAMPA donor plates (Sigma Aldrich #MAIPNTR10). After air drying for 20 min, the donor plate wells were charged with 250 μL of the solutions of the test compounds or the controls. The donor plate was then placed over the acceptor plate (Sigma Aldrich #MATRNPS50), in which wells were previously filled with 1 × PBS (2 % DMSO v/v) solution. The PAMPA sandwich was closed with parafilm and incubated at 25 °C for 18 h in a humidity-saturated atmosphere with orbital agitation. […] The UV spectra (250–400 nm) of each well were acquired on a BioTek Synergy H1 MD plate reader equipped with a monochromator at room temperature.
(§4) CA(t) is the concentration of the compounds at the final time of incubation on the acceptor well; CD(0) and CD(t) are the concentration of the compounds at the initial time of incubation and at the final time of incubation on the donor well, respectively.

[6] = parameters: method as in PMID 33634973; conditions: human microsomes; cited from earlier work
[7] = parameters: method as in PMID 33634973; conditions: mouse microsomes; cited from earlier work
[8] = system: cells containing SOD1 mutations associated with ALS; parameters: method as in PMID 21073276, PMID 22189273, PMID 22837812; conditions: Fig. 1, evolution of CHD series; cited from earlier work
[9] = system: primary hippocampal neuronal cells; parameters: method as in PMID 40030015; conditions: cited from earlier work
[10] = system: primary hippocampal neurons; parameters: method as in PMID 40030015; conditions: cited from earlier work
[11] = Parallel artificial membrane permeability assay - blood brain barrier (PAMPA-BBB); conditions: pig, PAMPA, pH 7.5
Method: as §3, §4

Question: Which EC50 ([1]; PC12-SOD1^G85R YFP cells, 0.7 μM MG132, 72 h, Inactive = no decrease of aggregates at 10 μM vs vehicle) does the source give for C[C@H](Oc1cc(C(F)(F)F)cc(C(F)(F)F)c1)C1CC(=O)CC(=O)C1 [NU-9] here?
Answer: 2.52 ± 0.38 µM

Question: What about the “decrease in MG132-induced SOD-1^G85R aggregate formation” value ([1]; at 10 μM, 72 h) of the same compound?
Answer: marked decrease

Question: And the viability at 24 h, 30 μM ([2]; 30 μM, 24 h, relative to untreated cells, read-out: Percentage of viable cells observed at 30 μM treatment, HepG2)?
Answer: 93.5%

Question: What about the viability at 48 h, 30 μM ([2]; 30 μM, 48 h, relative to untreated cells, read-out: Percentage of viable cells observed at 30 μM treatment, HepG2) of the same compound?
Answer: 96.3%

Question: And the EC50 at 24 h ([2]; cytotoxicity, 24 h)?
Answer: > 30 µM

Question: What about the EC50 at 48 h ([2]; cytotoxicity, 48 h) of the same compound?
Answer: > 30 µM

Question: And the “EC50 Fold difference” value (HepG2 cells)?
Answer: >12

Question: What about the viability at 24 h, 30 μM ([3]; 30 μM, 24 h, relative to untreated cells, read-out: Percentage of viable cells observed at 30 μM treatment, HEK293) of the same compound?
Answer: 85.7%

Question: And the viability at 48 h, 30 μM ([3]; 30 μM, 48 h, relative to untreated cells, read-out: Percentage of viable cells observed at 30 μM treatment, HEK293)?
Answer: 89.6%

Question: What about the EC50 at 24 h ([3]; cytotoxicity, 24 h) of the same compound?
Answer: > 30 µM

Question: What about the EC50 at 48 h ([3]; cytotoxicity, 48 h) of the same compound?
Answer: > 30 µM

Question: What about the EC50 [4] of the same compound?
Answer: 3.37 ± 0.26 µM

Question: And the “Log Pe” value [5]?
Answer: −5.16

Question: And the “t1/2 (human)” value [6]?
Answer: 74^27 min

Question: And the “t1/2 (mouse)” value [7]?
Answer: 52^27 min

Question: What about the EC50 [8] of the same compound?
Answer: 0.3 µM

Question: What about the Amyloid-beta oligomer build-up [9] of the same compound?
Answer: capable of reducing Amyloid-beta oligomer build-up

Question: And the LC3II puncta [10]?
Answer: capable of increasing LC3II puncta

Question: What about the Papp at 18 h, 250 μM [11] of the same compound?
Answer: 6.98 ± 0.14 ×10⁻⁶ cm/s
